Results taken from patent publication EP1393728A1, “Inverse agonists acting at virus-encoded G protein-coupled receptors” (priority 2002, dated 2004).

How the values were obtained:
[1] = target: T1, RCMV-encoded R33 (Rat cytomegalovirus, UniProt O12000); experiment: R33-mediated InsP accumulation (PLC activation) in COS-7 cells; format: cell-based; details: concentration as high as 10 µM
T1 construct: expressed in transfected cells; host or cells: COS-7
Experimental: (§1) [^3H]-inositol phosphate production. Experiments in COS-7 cells and HFFs were performed as described in the references mentioned in the previous paragraph.
(§2) Moreover, other GPCRs were used as controls to ascertain specificity of action of this compound. As previously reported, expression ofRCMV-encoded R33 (Gruijthuijsen et al. J. Virol. 76 (2002), 1328-1338) or KSHV-encoded ORF74 (Rosenkilde et al. 274 (1999), 956-961) also leads to constitutive activation of phospholipase C.

[2] = target: T2, US28 (Human cytomegalovirus, UniProt P69332); experiment: biochemical; format: binding, HCMV
[3] = tested on: US28-mediated HIV-1 entry; experiment: HIV-1 infection assay (luciferase reporter virus) in HEK293-T cells with CD4 and US28; format: cell-based; details: Human immunodeficiency virus 1, HEK-293T
Experimental: HIV-1 infection assay. HEK293-T cells were transiently transfected with pcDNA1-US28 and pcDNA1-CD4 using the calcium phosphate method and cultured overnight in 48 well plates. The following day, cells were incubated with different concentrations of the compound of Formula X (dissolved in DMSO) or medium (containing an equal amount of DMSO) for 2 hours before infection with an R5-tropic HIV- 1 virus containing the luciferase reporter gene under the LTR promoter. After overnight incubation, cells were washed twice and cultivated in fresh medium. 3 days after infection, the luciferase activity was quantitated using the Luciferase Assay System (Promega, Madison, USA).
(§3) In order to test the ability of the compound of Formula X to block viral entry via US28, a reporter gene assay was used. In this assay, HEK-293T cells expressing US28 and CD4 are infected by a luciferase-containing HIV-1 reporter virus. Consequently, the level of cellular luciferase activity is proportional to HIV-1 entry. […] Luciferase activity is increased approximately 20 fold in the presence of US28 when compared to cells expressing CD4 alone (fig. 6A). […] At 10^-6M, the compound of Formula X reduces HIV-1 entry to 41 ± 8 % of control cells. Determination of a complete dose-response curve was not possible due to toxic effects of DM50 and the compound at higher concentrations, as determined by MTT test.

[4] = target: Δ(2-22)-US28 (Human cytomegalovirus, UniProt P69332); experiment: cell-based; parameters: species or system HCMV
Text: (§4) DNA constructs. The cDNA encoding for US28 (see Casarosa et al. in J, Biol. Chem. 276 (2001) 1133-1137) was inserted into the mammalian vector pcDNAS. Δ(2-22)-US28 and the HA-tagged versions of both WT- and Δ(2-22)-US28 were generated by PCR. Single amino acid mutations, as for E^277A- and E^277Q.US28, were introduced using the Altered Sites® II in vitro Mutagenesis System (Promega, Madison, USA), according to manufacturer's protocol. All constructs were verified by dideoxy sequencing.
as §1

[5] = target: T2, US28; format: binding, HCMV; details: in the presence of 10 µM compound of Formula X (725 ± 69 in its absence)
Experimental: (§5) Binding experimants. Labeling of RANTES (Peprotech, Rocky Hill, USA) with [^125I] and binding in COS-7 cells were performed as previously described (Gruijthuijsen et al., J. Virol. 76 (2002) 1328-1338).
Moreover, the present inventors investigated the effect of the compound of Formula X in a saturation binding assay of [^125I]-RANTES.

[6] = target: T2, US28; experiment: cell-based; parameters: species or system HCMV; details: for % 10^-5 remaining activity on US28 in inositol phosphate assay: at 10^-5; for inverse agonistic effect at US28 relative to the compound of Formula X (statement in words): structure-activity discussion of Table 1; for loss in inverse agonistic potency: relative to the compound of Formula X
Experimental: (§6) Cell culture, transfection and infection with HCMV. COS-7 cells were grown as previously described in the cited Casarosa reference. Transfection of the COS-7 cells was performed by DEAE-dextran, using 2 µg of DNA of each US28 construct per million cells. Human foreskin fibroblasts (HFFs) were cultured and infected with […] (strain AD169) or a deletion mutant Δ28-HCMV.
as §1
Data analysis. Curve fitting of data was carried out using the program Prism and IC50 values obtained by nonlinear regression analysis (GraphPad Software, Inc., San Diego, USA). Data are expressed as mean ± S.E.
In order to find inverse agonists for US28, a variety of compounds were screened for modulation of US28-mediated constitutive inositol phosphate (InsP) production. This approach led to identify the compound of Formula X as inverse agonist for US28.

[7] = target: T3, human histamine H1 receptor (hH1) (Homo sapiens, UniProt P35367); experiment: InsP production in COS-7 cells expressing the histamine H1 receptor; format: cell-based; details: 10 µM, COS-7 cells expressing the H1 receptor
T3 construct: expressed in transfected cells; host or cells: COS-7
Experimental: as §1
Furthermore, the compound of Formula X was tested on COS-7 cells expressing the human histamine H1 receptor (hH1). Like US28, this GPCR constitutively activates PLC enzymes via Gαq/11 proteins.

[8] = tested on: HEK-293T cells; experiment: MTT test; format: cell-based; details: higher concentrations (above 10^-6M), together with the solvent
Text: as §3

[9] = target: T2, US28; experiment: cell-based; parameters: species or system HCMV (strain AD169)
Experimental: as §6, §1

[10] = tested on: US28; experiment: cell-based; parameters: species or system HCMV (strain AD169); details: US28-deletion-mutant-HCMV- or mock-infected HFFs
Experimental: as §6, §1

[11] = target: T2, US28; experiment: biochemical; format: binding, HCMV (strain AD169); details: AD169-infected HFFs
Experimental: as §6, §5

[12] = target: E^277Q-US28 (Human cytomegalovirus, UniProt P69332, E277Q); format: binding, HCMV; details: E277Q-US28, [125I]-RANTES displacement
Text: as §4, §5
(§7) E^277 was therefore mutated into glutamine, to eliminate the charge but retain the hydrogen bonding potential of the side chain, and into alanine, to eliminate both the charge and the hydrogen bonding potential.

[13] = target: E^277A-US28 (Human cytomegalovirus, UniProt P69332, E277A); format: binding, HCMV; details: E277A-US28, [125I]-RANTES displacement
Text: as §4, §5, §7

[14] = target: T4, KSHV-encoded ORF74 (Human herpesvirus 8 type P, UniProt Q98146); experiment: ORF74-mediated InsP accumulation (PLC activation) in COS-7 cells; format: cell-based; details: concentration as high as 10 µM
T4 construct: expressed in transfected cells; host or cells: COS-7
Experimental: as §1, §2

[15] = tested on: transfected cells; experiment: AlamarBlue toxicity test; format: cell-based; details: AlamarBlue assay, 2 hours incubation, data not shown
Experimental: Toxicity test. The AlamarBlue^TM assay (Serotec, Oxford, UK) was performed following the manufacturer's protocol. Briefly, transfected cells were incubated with the compound of Formula X for 2 hours, followed by the addiction of the AlamarBlue dye.
After 1 hour, the fluorescence was monitored at 560 nm excitation wavelength and 590 nm emission wavelenght in a Victor^2 (PerkinElmer, Boston, USA).

[16] = IC50 InsP, inhibition of US28-mediated InsP production, COS-7 cells, N.A. = non active

T2 sequence (P69332 whole entry): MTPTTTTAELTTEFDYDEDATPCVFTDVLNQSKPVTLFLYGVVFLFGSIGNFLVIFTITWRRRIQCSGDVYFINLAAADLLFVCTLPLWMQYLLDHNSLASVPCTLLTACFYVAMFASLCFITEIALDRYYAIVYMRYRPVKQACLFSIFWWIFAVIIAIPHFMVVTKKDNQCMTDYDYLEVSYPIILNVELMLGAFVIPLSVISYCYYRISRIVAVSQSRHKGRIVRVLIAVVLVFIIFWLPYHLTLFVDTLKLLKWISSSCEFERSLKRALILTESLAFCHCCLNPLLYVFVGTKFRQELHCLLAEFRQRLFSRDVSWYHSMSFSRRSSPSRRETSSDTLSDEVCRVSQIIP
Chain of Δ(2-22)-US28 (P69332 22-354, looked up, stated change not applied): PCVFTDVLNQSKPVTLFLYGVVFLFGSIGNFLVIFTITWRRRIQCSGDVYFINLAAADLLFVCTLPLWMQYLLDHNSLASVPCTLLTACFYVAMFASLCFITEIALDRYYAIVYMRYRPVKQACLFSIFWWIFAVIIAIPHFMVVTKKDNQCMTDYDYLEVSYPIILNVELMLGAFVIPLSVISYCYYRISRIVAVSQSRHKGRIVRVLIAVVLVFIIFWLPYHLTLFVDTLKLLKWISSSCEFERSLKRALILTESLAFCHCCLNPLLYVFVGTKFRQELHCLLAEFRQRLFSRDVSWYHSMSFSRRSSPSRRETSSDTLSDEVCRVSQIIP
Chain of E^277Q-US28 (P69332 whole entry E277Q): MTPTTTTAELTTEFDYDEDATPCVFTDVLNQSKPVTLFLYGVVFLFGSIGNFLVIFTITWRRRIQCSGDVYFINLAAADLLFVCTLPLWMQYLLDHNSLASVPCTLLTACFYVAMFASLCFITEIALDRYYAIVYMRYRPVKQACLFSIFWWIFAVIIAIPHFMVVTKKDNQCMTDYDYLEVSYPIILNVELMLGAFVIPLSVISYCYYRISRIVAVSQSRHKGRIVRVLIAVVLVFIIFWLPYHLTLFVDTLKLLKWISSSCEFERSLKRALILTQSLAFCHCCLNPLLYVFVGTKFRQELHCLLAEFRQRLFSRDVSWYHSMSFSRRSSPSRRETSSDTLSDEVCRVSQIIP
T3 sequence (P35367 whole entry): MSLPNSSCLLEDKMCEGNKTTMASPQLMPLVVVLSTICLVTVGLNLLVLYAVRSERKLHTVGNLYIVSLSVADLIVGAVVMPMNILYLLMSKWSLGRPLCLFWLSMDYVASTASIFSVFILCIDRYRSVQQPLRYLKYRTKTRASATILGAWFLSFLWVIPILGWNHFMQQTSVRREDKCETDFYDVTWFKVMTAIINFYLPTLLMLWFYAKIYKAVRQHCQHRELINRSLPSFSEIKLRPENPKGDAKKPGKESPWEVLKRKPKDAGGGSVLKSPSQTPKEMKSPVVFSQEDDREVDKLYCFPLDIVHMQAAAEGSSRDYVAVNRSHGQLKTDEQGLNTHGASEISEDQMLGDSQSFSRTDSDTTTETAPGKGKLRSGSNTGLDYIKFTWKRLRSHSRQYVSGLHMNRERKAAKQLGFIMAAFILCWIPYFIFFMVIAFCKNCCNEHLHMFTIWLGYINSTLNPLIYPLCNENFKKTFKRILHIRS
T4 sequence (Q98146 whole entry): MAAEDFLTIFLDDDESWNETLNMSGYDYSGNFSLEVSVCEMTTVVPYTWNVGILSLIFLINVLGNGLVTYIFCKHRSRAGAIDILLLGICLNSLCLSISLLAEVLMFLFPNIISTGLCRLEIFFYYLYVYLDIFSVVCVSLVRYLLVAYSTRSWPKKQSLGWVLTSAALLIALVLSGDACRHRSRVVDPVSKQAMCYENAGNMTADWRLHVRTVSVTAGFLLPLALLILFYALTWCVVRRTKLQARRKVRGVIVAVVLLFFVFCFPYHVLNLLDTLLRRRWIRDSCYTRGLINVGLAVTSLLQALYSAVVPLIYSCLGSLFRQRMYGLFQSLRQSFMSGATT
T1 sequence (O12000 whole entry): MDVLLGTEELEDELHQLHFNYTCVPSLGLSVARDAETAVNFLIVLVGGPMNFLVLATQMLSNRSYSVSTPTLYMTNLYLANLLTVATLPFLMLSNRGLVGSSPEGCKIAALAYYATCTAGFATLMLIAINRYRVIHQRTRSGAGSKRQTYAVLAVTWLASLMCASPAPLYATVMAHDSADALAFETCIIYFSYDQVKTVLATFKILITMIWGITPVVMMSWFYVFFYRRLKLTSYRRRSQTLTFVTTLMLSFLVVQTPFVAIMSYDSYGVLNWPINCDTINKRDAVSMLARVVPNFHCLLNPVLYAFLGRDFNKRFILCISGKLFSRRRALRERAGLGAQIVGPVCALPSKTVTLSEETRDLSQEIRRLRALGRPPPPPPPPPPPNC
Chain of E^277A-US28 (P69332 whole entry E277A): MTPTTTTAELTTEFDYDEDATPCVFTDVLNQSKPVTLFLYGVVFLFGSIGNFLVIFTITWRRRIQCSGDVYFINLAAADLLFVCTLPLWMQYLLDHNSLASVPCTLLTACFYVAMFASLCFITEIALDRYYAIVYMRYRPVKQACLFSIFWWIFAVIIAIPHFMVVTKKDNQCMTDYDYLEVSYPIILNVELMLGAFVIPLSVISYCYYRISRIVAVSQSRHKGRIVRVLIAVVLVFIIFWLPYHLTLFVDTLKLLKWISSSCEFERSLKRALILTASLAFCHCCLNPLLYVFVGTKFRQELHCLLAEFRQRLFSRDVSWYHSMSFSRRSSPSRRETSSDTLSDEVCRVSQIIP

N#CC(CCCN1CCC(O)(c2ccc(Cl)cc2)CC1)(c1ccccc1)c1ccccc1 [Formula X]
modulation of R33-mediated PLC activation [1]: does not modulate
IC50 [2]: 8.4 µM
activity at 1 µM ([3]; read-out: HIV-1 entry, % of control cells): 41 ± 8%
inhibition at 1 µM ([3]; read-out: inhibition of viral entry): 60%
IC50 [4]: 4.47 µM
inhibition of constitutive signaling ([4]; Δ(2-22)-US28, COS-7 cells): totally inhibits
Bmax value of [125I]-RANTES [5]: 380 ± 36 fmol/mg protein
kind of inverse agonism at US28 (inhibition of signaling complete) ([6]; COS-7 cells): full inverse agonist
IC50 [6, 16]: 3.5 µM
% 10^-5 remaining activity on US28 in inositol phosphate assay [6]: 10%
IC50 ([6]; pIC50 of US28 mediated InsP production, COS-7 cells, WT-US28): 3.47 µM
basal or histamine-induced production of InsP [7]: does not alter
toxicity by MTT test [8]: toxic effects
IC50 [9]: 0.776 µM
effect on InsP signaling [10]: does not affect
IC50 ([11]; IC50 of [125I]-RANTES displacement): 0.708 µM
IC50 ([11]; pIC50 of [125I]-RANTES displacement): 0.708 µM
affinity compared to WT-US28 [12]: markedly reduced
affinity compared to WT-US28 [13]: markedly reduced
modulation of ORF74-mediated PLC activation [14]: does not modulate
cellular toxicity [15]: did not show cellular toxicity

CC(C)(C)c1ccc(C(O)CCCN2CCC(C(O)(c3ccccc3)c3ccccc3)CC2)cc1 (stereo not drawn) [Terfenadine, α-[4-(1,1-dimethylethyl)phenyl]-4-(hydroxydiphenylmethyl)-1-piperidinebutanol, reference compound]
% 10^-5 remaining activity on US28 in inositol phosphate assay [6]: 15%

N#CC(CCCN1CCN(c2ccc(Cl)cc2)CC1)(c1ccccc1)c1ccccc1 [VUF5658]
% 10^-5 remaining activity on US28 in inositol phosphate assay [6]: 88%
inverse agonistic effect at US28 relative to the compound of Formula X (statement in words) [6]: inactive

N#CC(CCCN1CCC(O)(c2ccccc2)CC1)(c1ccccc1)c1ccccc1 [VUF5660]
IC50 [2]: 35 µM
IC50 [6, 16]: 29 µM
% 10^-5 remaining activity on US28 in inositol phosphate assay [6]: 60%
loss in inverse agonistic potency [6]: five- to ten-fold

N#CC(CCCN1CCC(c2ccc(Cl)cc2)CC1)(c1ccccc1)c1ccccc1 [VUF5662]
IC50 ([2]; [125I]-RANTES binding at US28, COS-7 cells, N.A. = non active, read-out: IC50 binding): 10.5 µM
IC50 [6, 16]: 14 µM
% 10^-5 remaining activity on US28 in inositol phosphate assay [6]: 60%
loss in inverse agonistic potency [6]: five- to ten-fold

N#CC(CCCN1CC=C(c2ccc(Cl)cc2)CC1)(c1ccccc1)c1ccccc1 [VUF5664]
% 10^-5 remaining activity on US28 in inositol phosphate assay [6]: 83%

O=C(CCCN1CCC(O)(c2ccc(Cl)cc2)CC1)c1ccccc1 [VUF5666]
% 10^-5 remaining activity on US28 in inositol phosphate assay [6]: 70%

OC1(c2ccc(Cl)cc2)CCN(CCCC(c2ccccc2)c2ccccc2)CC1 [VUF5667]
IC50 [2]: 5.9 µM
IC50 [6, 16]: 4.2 µM
% 10^-5 remaining activity on US28 in inositol phosphate assay [6]: 23%
inverse agonistic effect at US28 relative to the compound of Formula X (statement in words) [6]: does not affect the activity

N#CC1(CCCN2CCC(O)(c3ccc(Cl)cc3)CC2)c2ccccc2CCc2ccccc21 [VUF5713]
IC50 [2]: 9.6 µM
IC50 [6, 16]: 5.3 µM
% 10^-5 remaining activity on US28 in inositol phosphate assay [6]: -5%
inverse agonistic effect at US28 relative to the compound of Formula X (statement in words) [6]: comparable potencies

OC1(c2ccc(Cl)cc2)CCN(CCCOc2ccccc2)CC1 [VUF5714]
% 10^-5 remaining activity on US28 in inositol phosphate assay [6]: 77%

N#CC(O)(CCCN1CCC(O)(c2ccc(Cl)cc2)CC1)c1ccccc1 (stereo not shown) [VUF5715]
inverse agonistic effect at US28 relative to the compound of Formula X (statement in words) [6]: loss of effect

O=C(NCC(CCCN1CCC(O)(c2ccc(Cl)cc2)CC1)(c1ccccc1)c1ccccc1)NC1CCNCC1 [VUF5717]
% 10^-5 remaining activity on US28 in inositol phosphate assay [6]: 100%

N#CC(CCCN1CCC(C(=O)O)CC1)(c1ccccc1)c1ccccc1 [VUF5718]
% 10^-5 remaining activity on US28 in inositol phosphate assay [6]: 85%

N#CC(CCCN1CCC(C(N)=O)CC1)(c1ccccc1)c1ccccc1 [VUF5720]
% 10^-5 remaining activity on US28 in inositol phosphate assay [6]: 87%

N#CC1(CCCN2CCC(O)(c3ccc(Cl)cc3)CC2)c2ccccc2CSc2ccccc21 (stereo not shown) [VUF5727]
% 10^-5 remaining activity on US28 in inositol phosphate assay [6]: 14%

NCC(CCCN1CCC(O)(c2ccc(Cl)cc2)CC1)(c1ccccc1)c1ccccc1 [VUF5728]
% 10^-5 remaining activity on US28 in inositol phosphate assay [6]: 10%
